Data: patent publication US12642808B2, “Methods of inhibiting Klebsiella pneumoniae carbapenemase-2” (priority 2023, dated 2026)
Read-outs that look alike come from different tables or passages of the source.

Legend:
KPC-74T [1] = assay: Chessboard minimum inhibitory concentration determination; type: cell-based, Escherichia coli; conditions: for MIC: Escherichia coli; for MIC value decreased: combined use of the two drugs versus alone
Excerpt: (§1) KPC-74T, carrying Escherichia coli containing KPC-2 plasmid, constructed by the laboratory; Hvkp, obtained through laboratory isolation; AN2718 purchased from Target Mol Technology Co., Ltd; BBLTM Mueller Hinton II Broth was purchased from BD Company in the United States; Meropenem was purchased from Meilun Biotechnology Co., Ltd; LB Broth was purchased from Qingdao High tech Industrial Park Haibo Biotechnology Co., Ltd; Enzyme marker (UV1900i, Shimadzu company);
This study referenced the standards of the Clinical and Laboratory Standards Institute (CLSI) in the United States and the laboratory's previous improvement methods and measured partial inhibitory concentrations through a chessboard test. Firstly, KPC-74T was activated, inoculated on Lysogeny broth, and cultured overnight at 37° C. Add 100 μL MHB medium to each well in a sterile 96 well plate; Then add AN2718 solution 100 μL to the first line and perform gradient dilution along the vertical axis. Then, add Meropenem solution to the first column and dilute it in a gradient along the abscissa. Finally, in addition to the negative control, add 100 μL of bacterial suspension ≈1×10^6 CFUs mL^−1. After completing the above operations, place the 96 well plate in a 37° C. constant temperature incubator and incubate for 18 hours. Observe the bacterial solution of each well under appropriate light, and observe the drug concentration corresponding to the complete absence of bacterial growth wells, which is MIC. Determine synergistic effects by calculating FIC. FIC can be calculated according to formula (1): […]
MICa is a separate MIC of compound a; MICab is the MIC of compound a combined with compound b; MICb is a separate MIC of compound b; MICba is the MIC of compound b combined with compound a; FICa is the FIC of compound a; FICb is the FIC of compound b. According to the standard definition, FICI≤0.5 is defined as synergy; 0.5<FICI≤1 is defined as an additive; […] is defined as no difference; FICI>4 is defined as an antagonistic effect.

KPC-74T [2] = assay: Time sterilization (time-killing) curve; type: cell-based, Escherichia coli
Excerpt: as §1
Inoculate overnight cultured bacterial KPC-74T in a 1:10000 ratio onto MHB medium and incubate at 225 rpm at 37° C. for 2 hours (early exponential growth phase) or 5 hours (late exponential growth phase). After incubation, add the corresponding concentration of AN2718 or Meropenem solution and incubate it at 37° C. and 225 rpm. Set the time point to 0, 1, 3, 5, 7, and 24 hours. At each time point, absorb 100 μL bacterial solution, centrifuged at 10000 g rotating speed for 1 min, resuspended with PBS, diluted in ten fold gradient, and absorbed 10 μL of each gradient drops onto MHA plate. Place the plates in a 37° C. incubator for 24 hours and remove them. Count each plate and calculate the total bacterial count. Repeat the experiment three times.

KPC-2 enzyme = KPC-2 enzyme (Klebsiella pneumoniae, UniProt Q9F663); assay: Enzyme activity determination (nitrocefin hydrolysis); type: biochemical
Sequence of KPC-2 enzyme (Q9F663 25-293 limits assumed): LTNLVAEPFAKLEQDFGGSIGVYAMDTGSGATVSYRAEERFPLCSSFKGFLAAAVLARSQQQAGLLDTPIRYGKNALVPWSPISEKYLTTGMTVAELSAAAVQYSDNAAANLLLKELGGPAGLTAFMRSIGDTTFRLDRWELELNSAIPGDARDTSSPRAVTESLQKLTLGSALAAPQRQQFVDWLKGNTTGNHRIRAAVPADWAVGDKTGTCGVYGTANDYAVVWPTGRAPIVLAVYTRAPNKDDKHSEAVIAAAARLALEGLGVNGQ
Protocol: Enzyme activity was measured using a Shimadzu UV-1900i spectrophotometer in 50 mM phosphate buffer (pH 7.0) to measure the inhibitory effect. The total enzyme activity reaction system is 500 μL. The reaction temperature was set to 37° C., and 0.3 nM KPC-2 enzyme was pre-incubated with different concentrations of AN2718 in phosphate buffer (pH 7.0) for 5 minutes before adding 60 μL nitrocefin. Measure the hydrolysis inhibition effect of AN2718 on nitrocefin by detect change of absorbance. The 50% inhibition concentration is determined by the inhibition curve of the control activity percentage and inhibitor concentration. Repeat the experiment three times.

KPC-93 = KPC-93 (Klebsiella pneumoniae, UniProt Q9F663); assay: as above; type: biochemical; conditions: read-out: semi-inhibitory concentration IC50 for KPC-93
Sequence of KPC-93 (Q9F663 25-293 limits assumed): as above

KPC-41 = KPC-41 (Klebsiella pneumoniae, UniProt Q9F663); assay: as above; type: biochemical; conditions: read-out: semi-inhibitory concentration IC50 on KPC-41
Sequence of KPC-41 (Q9F663 1-268, added parts left off, change not shown, form open): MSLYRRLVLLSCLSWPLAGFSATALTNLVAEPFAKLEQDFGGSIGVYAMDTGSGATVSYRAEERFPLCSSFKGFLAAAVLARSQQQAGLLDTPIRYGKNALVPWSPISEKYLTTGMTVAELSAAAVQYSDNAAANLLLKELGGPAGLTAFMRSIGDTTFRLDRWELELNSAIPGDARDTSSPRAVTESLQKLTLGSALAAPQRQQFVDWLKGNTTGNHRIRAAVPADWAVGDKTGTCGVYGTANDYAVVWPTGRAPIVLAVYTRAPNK

Hvkp2 strain = assay: Treatment of mice infected with Hvkp2 strain; type: in vivo, ICR mice; conditions: monotherapy 16 mg/kg; for survival rate: after 24 hours of Hvkp2 infection, mice
Protocol: The experiment was conducted on mice infected with Hvkp2 strain for treatment. A total of 35 male ICR mice of SPF grade at four weeks old were selected and divided into seven groups. The […] were set as the saline control group, AN2718 monotherapy group (16 mg/kg), Meropenem monotherapy group (16 mg/kg), AN2718/Meropenem combination group 1 (8 mg/kg+8 mg/kg), AN2718/Meropenem combination group 2 (8 mg/kg+16 mg/kg), AN2718/Meropenem combination group 3 (16 mg/kg+8 mg/kg) and AN2718/Meropenem combination group 4 ([…]), respectively. First, incubate Hvkp2 overnight at 37° C., activate it, and resuspend it with physiological saline. Adjust the bacterial concentration to approximately 1×10^6 CFU/mL, spare. […]. Inject saline or medication 1 hours after infection. After 12 hours, the second dose of medication was administered for treatment, with a total of five injections and a time interval of 12 hours between each injection. Observe and count the survival status of each group of mice during the experiment.
This experiment used SPSS 20.0 software to statistically process and analyze the data represented by (X±SD). Multiple comparisons and one-way ANOVA were used to analyze and compare the data of each group. (P<0.05 indicates a significant difference, and P<0.01 indicates a highly significant difference).

## OB1OCc2cc(Cl)ccc21 [AN2718, 5-chloro-1,3-dihydro-1-hydroxy-2,1-benzoxaborole]
KPC-74T [1]; 18 h, read-out: AN2718 S-MIC
  MIC: 13.4 µg/mL
KPC-74T [1]; KPC-74T
  MIC value decreased: four
KPC-74T [2]; AN2718 single use, up to 160 μM (26.88 μg/mL), within 24 hours
  effect on the growth of KPC-74T: has no effect on the growth of KPC-74T
KPC-2 enzyme
  IC50: 499 nM
KPC-93
  IC50: 116 nM
KPC-41
  IC50: 370000 nM
Hvkp2 strain
  survival rate: 40%
Hvkp2 strain; between 36h and 132h, mice infected with Hvkp2
  survival rate versus Meropenem group: significantly higher

## C[C@@H](O)[C@H]1C(=O)N2C(C(=O)O)=C(S[C@@H]3CN[C@H](C(=O)N(C)C)C3)[C@H](C)[C@H]12 [Meropenem]
KPC-74T [1]; AN2718 in combination with Meropenem, KPC-74T
  FICI: 0.25
KPC-74T [1]; AN2718 in combination with Meropenem, KPC-74T, from FICI
  Result: synergy (FICI≤0.5 is defined as synergy)
KPC-74T [1]; read-out: Drug S-MIC
  MIC: 64 µg/mL
KPC-74T [1]; KPC-74T
  MIC value decreased: 1024 times
KPC-74T [2]; Meropenem 4 μg/mL and 8 μg/mL with AN2718 40 μM
  killing of bacteria within 24 h: could not kill all bacteria
KPC-74T [2]; Meropenem 4 μg/mL with AN2718 80 μM
  killing of bacteria within 24 h: can kill most of the bacteria
KPC-74T [2]; Meropenem 4 μg/mL with AN2718 160 μM
  killing of bacteria within 24 h: can kill all bacteria
KPC-74T [2]; Meropenem 128 μg/mL with AN2718 20 μM
  killing of bacteria within 24 h: all bacteria can be killed
KPC-74T [2]; Meropenem alone 2 μg/mL˜64 μg/mL, at 24 hours
  number of colonies versus control group: no significant difference
KPC-74T [2]; Meropenem alone 2 μg/mL˜64 μg/mL, first 5 hours
  effect on the growth of KPC-74T: a certain inhibitory effect
KPC-74T [2]; Meropenem alone 128 μg/mL
  effect on the growth of KPC-74T: significant inhibitory effect
  killing of bacteria within 24 h: still cannot kill all bacteria
KPC-74T [2]; Meropenem remaining concentrations (above 4 μg/mL) with AN2718 80 μM
  killing of bacteria within 24 h: can still kill all the bacteria
KPC-74T [2]; Meropenem rest concentrations (above 8 μg/mL) with AN2718 40 μM
  killing of bacteria within 24 h: could still effectively kill bacteria
Hvkp2 strain
  survival rate: 20%
